From patent publication US7462605B2, “Phosphoramidate compounds and methods of use” (Celmed Oncology (USA), Inc., priority 2002, dated 2008)
“Also recorded” adds a separate entry of the source.

Assays:
[1] = test system: W138 (Lung) normal cells; experiment: alamarBlue growth inhibition, W138; format: cell-based, human; conditions: 120 hours
Experimental: (§1) Growth Inhibition Studies. Cells growing exponentially were transferred to 384-well flat bottom tissue culture plates. All cell types were plated at a density of 500 cells per well in 25 μL of complete medium (RPMI 1640+10% fetal bovine serum+antibiotics/antimycotics). After 24 hours (day 0), 25 μL of complete medium containing the experimental compounds over the dose range of 10^ñ3 to 10^ñ10 M were added in triplicate. […] 5 μL of the redox indicator, alamarBlue, was added to each well (10% v/v). After 4 hours incubation at 37° C., fluorescence was monitored at 535 nm excitation and 595 nm emission.
(§2) Concentration vs. relative fluorescence units (RFU) were plotted, and sigmoid curves were fit using the Hill equation.

[2] = test system: SOAS2 (Bone) tumor cells; experiment: alamarBlue growth inhibition, SOAS2; format: cell-based, human; conditions: 120 hours
Experimental: as §1, §2

[3] = test system: NHEPF (Liver) normal cells; experiment: alamarBlue growth inhibition, NHEPF; format: cell-based, human; conditions: 120 hours
Experimental: as §1, §2

[4] = test system: collagen induced arthritis; experiment: Collagen induced arthritis in DBA/1 mice; format: in vivo, mouse; conditions: vs saline-treated control; NB1011 2.5 mg per day intraperitoneal
Experimental: Arthritis was induced in male DBA/1 mice (8-10 weeks old) by intradermal injection of bovine type II collagen, purified in-house at the Kennedy Institute of Rheumatology as previously described (Miller, E. J. et al. (1972)). Collagen was administered in complete Freund's adjuvant (Difco, Detroit, Mich.). Onset of arthritis is expected to be variable. Arthritis onset is considered to occur on the day that swelling and/or erythema were observed. Clinical score is a composite of disease severity and the number of limbs affected, and is monitored daily from onset of disease and used as an assessment of disease progress. An example for scoring is: 0, Normal; 1, slight swelling with erythema; 2, pronounced swelling; 3, joint rigidity. In addition, the extent of paw swelling reflects the degree of edema in affected limbs.
NB1011 was administered daily by intraperitoneal administration at 2.5 mg total dose per day.
Following immunization with collagen, mice were maintained until a significant clinical score for disease progression was achieved (between 2.5 and 3.5). Mice were then treated with control saline injections, NB1011, or with anti-TNF antibody as a positive control. […] Paw swelling is an alternative measure of CIA disease severity.

[5] = biological target: T1, TS in intact RKO cells (Homo sapiens, UniProt P04818); experiment: TS activity in intact cells by tritium release; format: cell-based; conditions: release of [^3H]2O from 5-[^3H]deoxyuridine
T1 construct: endogenous in cells; host or cells: RKO cells
Experimental: TS activity was measured in intact RKO cells by release of [^3H]2O from 5-[^3H]deoxyuridine as described in Materials and Methods. NB1011 was washed out of cells by replacing with fresh media, incubating for 60 minutes at 37 ° C., then repeating this procedure. Control and untreated cells were subjected to the same washing procedure.
TS Activity Assay by Tritium Release from dUMP-^3H. Cells were plated in 24 well plates to a density of 30,000 cells/plate and incubated for 16 hours to allow adhesion to the plastic surface of the plate.
Immediately prior to the thymidylate synthase assay, the media was replaced with RPMI+10% dialyzed fetal calf serum. 0.5 μCi of 5-[^3H]deoxyuridine was added to each well, and plates were incubated for 60 minutes at 37° C. without additional CO2. [^3H] release was measured by adsorbing 5-[^3H]deoxyuridine to activated charcoal (10% in 1×PBS) for 5 minutes at room temperature. After centrifugation for 5 minutes at 13,000 RPM, the amount of [^3H] in the supernatant was determined by liquid scintillation counting.
The results described above indicate that BVdUMP, generated intracellularly from NB1011, is unlikely to inactivate TS during its transformation to product(s). […] In these experiments exogenous 5-(3H) deoxyuridine is added to cell culture medium and the release of tritiated water is monitored (Carreras, C. W. and Santi, D. V. (1995) and Roberts (1966)). […]

[6] = test system: SKLU1 (Lung) tumor cells; experiment: alamarBlue growth inhibition, SKLU1; format: cell-based, human; conditions: 120 hours
Experimental: as §1, §2

[7] = test system: MRC9 (Lung) normal cells; experiment: alamarBlue growth inhibition, MRC9; format: cell-based, human; conditions: 120 hours
Experimental: as §1, §2

[8] = test system: N1S1 cells; experiment: alamarBlue cytotoxicity, N1S1 parental; format: cell-based; conditions: N1S1, Drug Selection None; read-out: NB1011-IC50
Experimental: as §1, §2
(§3) Cells were grown and characterized as described above. TS expression level is relative to CCD18co, a normal colon epithelial cell line. Tritium release is background substracted as described in Methods. ND=Not detectable above background.

[9] = test system: HT1080 (Colon) tumor cells; experiment: alamarBlue growth inhibition, HT1080; format: cell-based, human; conditions: 120 hours
Experimental: as §1, §2

[10] = test system: NHA (Brain) normal cells; experiment: alamarBlue growth inhibition, NHA; format: cell-based, human; conditions: 120 hours
Experimental: as §1, §2

[11] = test system: H630 colon cancer cells, TDX selection; experiment: alamarBlue cytotoxicity, H630 TDX-selected; format: cell-based, human; conditions: Drug Selection TDX, read-out: NB1011-IC50
Experimental: as §1, §2, §3

[12] = test system: MCF7 TDX/1011 cells (MCF7 TDX selected for resistance to NB1011); experiment: alamarBlue cytotoxicity, MCF7 TDX/1011; format: cell-based, human
Experimental: as §1, §2
Reversal of Resistance. The origin and characteristics of the human breast cancer MCF7 TDX cell line have been previously described (Drake, et al. (1996)). Briefly, MCF-7 breast cancer cells were selected in vitro for resistance to Tomudex by continuous exposure to stepwise increases in TDX concentrations up to 2.0 μM. […] After a dramatic initial cell killing effect, resistant colonies emerged, and vigorously growing monolayers were formed. TS protein level and IC50 for 5-FU, TDX, and NB1011 were determined for the resultant MCF7 TDX/1011 cell line as described in above by western blot and the alamarBlue cytotoxicity assay, respectively.

[13] = test system: H630R10 (5FU Resistant) human colon carcinoma; experiment: H630-10 5-FU resistant colon carcinoma xenografts in athymic mice; conditions: 1.25, 2.5, 3.5 mg daily × 5 days, IP or IT/peritumoral; from Day 6 to Day 25
Experimental: Tumor measurements began on the first day of treatment (Day 1).
Following cell expansion ex-vivo H630-10 were injected subcutaneously (S.Q.) at 1.5×10^7 cells/tumor in the mid-back region of 4-6 week old, female, CD-1 (nu/nu), athymic mice (Charles River Laboratories, Wilmington, Mass.). Tumor volumes, calculated as the product of length, width, and depth, were monitored twice weekly by serial micrometer measurements by a single observer. Six animals were randomly assigned to each treatment group and statistical tests were performed (single-factor ANOVA) to assure uniformity in starting tumor volumes between treatment and control groups at the beginning of the experiment. […] To assure accurate dosing, drug doses were individualized based upon animal weights determined immediately prior to each injection. […] Differences in day 25 xenograft volumes between groups were analyzed by single-factor ANOVA of the log transformed tumor volume data.

[14] = test system: NHOST (Bone) normal cells; experiment: alamarBlue growth inhibition, NHOST; format: cell-based, human; conditions: 120 hours
Experimental: as §1, §2

[15] = test system: NHLF (Lung) normal cells; experiment: alamarBlue growth inhibition, NHLF; format: cell-based, human; conditions: 120 hours
Experimental: as §1, §2

[16] = test system: TSH/HT1080 cells; experiment: alamarBlue cytotoxicity, HT1080 expressing high GFP-TS; format: cell-based, human; conditions: second line printed TSL/HT1080, TS Level 702%
Experimental: Cell lines and transfection. HT1080 cells were grown in PRM11640 medium supplemented with 10% fetal calf serum, and transfected with GFP-TS expression vector. 48 hours after, transfection cells were tripsinized and replated in culture medium containing 750 μg/ml G418. After selection with G418 for two weeks, surviving cells were sorted based upon fluorescence expression. One clone with higher fluorescence expression (named as TSH/HT1080) and one clone with lower fluorescence expression (named as TSL/HT1080) were selected and expanded into cells lines. The stable HT1080 cells transfected with pEGFP-C3 were used as control.
Construction of GFP-TS expression vector. […] The cDNA was cloned into HindIII and KpnI sites of mammalian expression vector pEGFP-C3 (Clontech Laboratories. Inc., Palo Alto, Calif.), in-frame with GFP sequence. The cDNA insert was confirmed by DNA sequencing.
Growth Inhibition Studies. Cells growing exponentially were transferred to 384-well flat bottom tissue culture plates. All cell types were plated at a density of 500 cells per well in 25 μL of complete medium (RPMI 1640+10% fetal bovine serum+antibiotics/antimycotics). […] After 4 hours incubation at 37° C., fluorescence was monitored at 535 nm excitation and 595 nm emission.
as §2

[17] = test system: SKOV3 (Ovary) tumor cells; experiment: alamarBlue growth inhibition, SKOV3; format: cell-based, human; conditions: 120 hours
Experimental: as §1, §2

T1 sequence (P04818 2-313 limits assumed): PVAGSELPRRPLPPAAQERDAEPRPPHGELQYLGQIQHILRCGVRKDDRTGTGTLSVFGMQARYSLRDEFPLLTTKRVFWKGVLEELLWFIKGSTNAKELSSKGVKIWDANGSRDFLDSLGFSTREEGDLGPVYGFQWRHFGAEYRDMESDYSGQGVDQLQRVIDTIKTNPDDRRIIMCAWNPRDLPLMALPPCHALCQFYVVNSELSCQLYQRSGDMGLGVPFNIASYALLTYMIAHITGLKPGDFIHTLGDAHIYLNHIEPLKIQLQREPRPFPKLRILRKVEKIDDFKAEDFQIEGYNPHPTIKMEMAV

“5-(2-Bromovinyl)-2′-deoxyuridine phenyl N-methoxy-L-alaninyl phosphoramidate [NB1011]” was tested, and the IC50 [1] was 335 µM, the IC50 [2] was 232 µM and the IC50 [3] was 2080 µM. For the same substance, the “clinical score (disease suppression)” value [4] was “significant disease suppression”, the “paw swelling (disease suppression)” value [4] was “significant disease suppression” and the “effect on TS activity in intact cells after wash-out” value [5] was “completely reversible; also recorded: does not irreversibly inactivate the TS enzyme”. For the same substance, the IC50 [6] was 270 µM, the IC50 [7] was 303 µM and the IC50 [8] was 494 µM. For the same substance, the IC50 [9] was 449 µM, the IC50 [10] was 839 µM and the IC50 [11] was 2.3 µM. The IC50 [12] was 240 µM, the “tumor growth (xenograft volume)” value [13] was “significant difference between the NB1011 groups vs. either the 5FU or excipient controls” and the IC50 [14] was 642 µM. For the same substance, the IC50 [15] was 139 µM, the IC50 [16] was 0.8 µM and the IC50 [17] was 484 µM.
